Test results reported in PMC8601423 (PLoS ONE, 2021).
Values joined by “and” are separate entries in the source; they are usually repeats but may differ in a detail not shown here. Equal entries are not always repeated.

What was measured:
[1] = test system: SARS CoV-2 S-protein (Wuhan-Hu-1 strain, spike trimer) expressing PsV, HEK293T cells stably expressing human ACE2; type: cell-based, SARS-CoV-2 (Wuhan-Hu-1 strain)
[2] = test system: VCAM mRNA, human coronary microvascular endothelial cells; type: cell-based
[3] = test system: IL-6 mRNA, human coronary microvascular endothelial cells; type: cell-based
[4] = test system: SRBD internalisation in ACE2 expressing A549 cells; type: cell-based, human
[5] = test system: IL-1β mRNA, human coronary microvascular endothelial cells; type: cell-based
[6] = test system: MCP-1 mRNA, human coronary microvascular endothelial cells; type: cell-based
purified human ACE2-Fc = target: T1, purified human ACE2-Fc (Homo sapiens, UniProt Q9BYF1); assay: biochemical; type: binding
T1 construct: purified recombinant human ACE2-Fc (Q18 –S740, peptidase domain) protein; purchased GenScript
T1 sequence (Q9BYF1 18-740): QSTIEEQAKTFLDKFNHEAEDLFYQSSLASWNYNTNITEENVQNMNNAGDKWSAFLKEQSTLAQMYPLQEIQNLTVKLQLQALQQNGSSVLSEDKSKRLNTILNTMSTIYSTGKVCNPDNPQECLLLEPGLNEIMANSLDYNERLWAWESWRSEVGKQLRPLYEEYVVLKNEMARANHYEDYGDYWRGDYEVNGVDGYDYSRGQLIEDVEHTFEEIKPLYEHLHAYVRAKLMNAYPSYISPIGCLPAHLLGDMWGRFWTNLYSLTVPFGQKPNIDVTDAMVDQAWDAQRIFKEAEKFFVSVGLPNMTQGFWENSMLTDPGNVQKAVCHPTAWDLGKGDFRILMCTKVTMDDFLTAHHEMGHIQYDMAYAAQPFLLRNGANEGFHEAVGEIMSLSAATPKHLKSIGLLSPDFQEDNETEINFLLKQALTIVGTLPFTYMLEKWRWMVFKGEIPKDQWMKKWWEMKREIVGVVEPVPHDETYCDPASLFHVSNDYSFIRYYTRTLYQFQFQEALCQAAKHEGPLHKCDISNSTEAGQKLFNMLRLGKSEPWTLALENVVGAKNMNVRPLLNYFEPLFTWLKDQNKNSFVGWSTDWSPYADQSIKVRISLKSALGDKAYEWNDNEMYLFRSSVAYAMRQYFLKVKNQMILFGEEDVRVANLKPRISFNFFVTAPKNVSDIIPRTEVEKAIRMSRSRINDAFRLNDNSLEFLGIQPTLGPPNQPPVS

| Compound | inhibition of spike PsV cell entry (in words) ([1]; N = 3) | S1 induced VCAM mRNA expression, peptide pre-treated [2] | VCAM mRNA expression, peptide alone [2] | IL-6, MEAN [3] | IL-6 mRNA expression, peptide alone [3] | S1 induced IL-6 mRNA expression, peptide pre-treated [3] | inhibition of SRBD internalisation (in words) [4] | IL-1β mRNA expression, peptide alone [5] | S1 induced IL-1β mRNA expression, peptide pre-treated [5] | MCP-1 mRNA expression, peptide alone [6] | S1 induced MCP-1 mRNA expression, peptide pre-treated [6] | Kd (purified human ACE2-Fc) | binding to ACE2 (in words) (purified human ACE2-Fc) | inhibition of spike PsV cell entry by soluble ACE2 (in words) [1] |
| --- | --- | --- | --- | --- | --- | --- | --- | --- | --- | --- | --- | --- | --- | --- |
| CC(=O)N[C@@H](CO)C(=O)N[C@@H](CCCCN)C(=O)N[C@H](C(=O)NCC(=O)NCC(=O)N[C@@H](CC(N)=O)C(=O)N[C@@H](Cc1ccc(O)cc1)C(=O)N[C@@H](CC(N)=O)C(=O)N[C@@H](Cc1ccc(O)cc1)C(=O)N[C@@H](CC(C)C)C(=O)N[C@@H](Cc1ccc(O)cc1)C(=O)N[C@@H](CCCNC(=N)N)C(=O)N[C@@H](CC(C)C)C(=O)N[C@@H](Cc1ccccc1)C(=O)N[C@@H](CCCNC(=N)N)C(=O)N[C@@H](CCCCN)C(N)=O)C(C)C [RBM1] | did not inhibit PsV cell entry | did not attenuate the S1 induced inflammatory response | did not mimic S1 protein-induced inflammation | 0.7896 and 1.445 | did not mimic S1 protein-induced inflammation | did not attenuate the S1 induced inflammatory response | marked, yet non-significant reduction | did not mimic S1 protein-induced inflammation | did not attenuate the S1 induced inflammatory response | did not mimic S1 protein-induced inflammation | did not attenuate the S1 induced inflammatory response | 207 nM | – | – |
| Ac-NYGLQGSPFGYQETPYPFCNFVQYG-NH2 [RBM2A-Sc] | – | – | – | 0.966 and 1.58 | – | – | did not significantly inhibit SRBD-mediated internalisation | – | – | – | – | – | appeared to bind to ACE2 in a dose-dependent manner (Fig 4C) saturation of ACE2 binding was not achieved | – |
| soluble ACE2 protein | – | – | – | – | – | – | – | – | – | – | – | – | – | completely blocked spike PsV cell entry |
